Data reported in patent US9770023B2, “Active compound combinations comprising phenylamidine compounds and further fungicides” (BAYER CROPSCIENCE AKTIENGESELLSCHAFT, priority 2014, dated 2017).

What was measured:
[1] = tested on: Alternaria solani; test: in vivo preventive test on Alternaria test (tomatoes)
Method: [table] To produce a suitable preparation of active compound, 1 part by weight of active compound is mixed with the stated amounts of solvent and emulsifier, and the concentrate is diluted with water to the desired concentration. To test for preventive activity, young plants are sprayed with the preparation of active compound at the stated rate of application. After the spray coating has dried on, the plants are inoculated with an aqueous spore suspension of Alternaria solani. The plants are then placed in an incubation cabinet at approximately 20° C. and a relative atmospheric humidity of 100%. The test is evaluated 3 days after the inoculation. 0% means an efficacy which corresponds to that of the untreated control while an efficacy of 100% means that no disease is observed.

[2] = tested on: Blumeria graminis f.sp. hordei; test: in vivo preventive Blumeria test (barley)
Method: [table] To produce a suitable preparation of active compound, 1 part by weight of active compound or active compound combination is mixed with the stated amounts of solvent and emulsifier, and the concentrate is diluted with water to the desired concentration. To test for preventive activity, young plants are sprayed with the preparation of active compound or active compound combination at the stated rate of application. After the spray coating has been dried, the plants are dusted with spores of Blumeria graminis f.sp. hordei. The plants are placed in the greenhouse at a temperature of approximately 18° C. and a relative atmospheric humidity of approximately 80% to promote the development of mildew pustules. The test is evaluated 7 days after the inoculation. 0% means an efficacy which corresponds to that of the untreated control, while an efficacy of 100% means that no disease is observed.

[3] = tested on: Phakopsora pachyrhizi; test: in vivo preventive test on Phakopsora test (soybeans)
Method: To produce a suitable preparation of active compound, 1 part by weight of active compound is mixed with the stated amounts of solvent and emulsifier, and the concentrate is diluted with water to the desired concentration. To test for preventive activity, young plants are sprayed with the preparation of active compound at the stated rate of application. After the spray coating has dried on, the plants are inoculated with an aqueous spore suspension of the causal agent of soybean rust (Phakopsora pachyrhizi) and stay for 24 h without light in an incubation cabinet at approximately 24° C. and a relative atmospheric humidity of 95%. The plants remain in the incubation cabinet at approximately 24° C. and a relative atmospheric humidity of approximately 80% and a day/night interval of 12 h.
The test is evaluated 7 days after the inoculation. 0% means an efficacy which corresponds to that of the untreated control, while an efficacy of 100% means that no disease is observed.

[4] = tested on: Puccinia triticina; test: in vivo preventive Puccinia triticina test (wheat); conditions: Table E1, 8 days after inoculation
Method: To produce a suitable preparation of active compound, 1 part by weight of active compound or active compound combination is mixed with the stated amounts of solvent and emulsifier, and the concentrate is diluted with water to the desired concentration.
To test for preventive activity, young plants are sprayed with the preparation of active compound or active compound combination at the stated rate of application. After the spray coating has been dried, the plants are sprayed with a spore suspension of Puccinia triticina. The plants remain for 48 hours in an incubation cabinet at approximately 20° C. and a relative atmospheric humidity of approximately 100%. The plants are placed in the greenhouse at a temperature of approximately 20° C. and a relative atmospheric humidity of approximately 80%.
The test is evaluated 8 days after the inoculation. 0% means an efficacy which corresponds to that of the untreated control, while an efficacy of 100% means that no disease is observed.

[5] = tested on: Pyrenophora teres; test: in vivo preventive Pyrenophora teres test (barley); conditions: Table F1, 8 days after inoculation
Method: (§1) [table] To produce a suitable preparation of active compound, 1 part by weight of active compound or active compound combination is mixed with the stated amounts of solvent and emulsifier, and the concentrate is diluted with water to the desired concentration. To test for preventive activity, young plants are sprayed with the preparation of active compound or active compound combination at the stated rate of application. After the spray coating has been dried, the plants are sprayed with a spore suspension of Pyrenophora teres. The plants remain for 48 hours in an incubation cabinet at approximately 20° C. and a relative atmospheric humidity of approximately 100%. The plants are placed in the greenhouse at a temperature of approximately 20° C. and a relative atmospheric humidity of approximately 80%. The test is evaluated 8 days after the inoculation. 0% means an efficacy which corresponds to that of the untreated control, while an efficacy of 100% means that no disease is observed.

[6] = tested on: Septoria tritici; test: in vivo preventive Septoria tritici test (wheat)
Method: as §1, with “suspension of Septoria tritici. The plants” for “suspension of Pyrenophora teres. The plants”, “of approximately 100% and afterwards for 60 hours at approximately 15° C. in a translucent incubation cabinet at a relative atmospheric humidity of approximately 100%. The” for “of approximately 100%. The”, “of approximately 15° C. and” for “of approximately 20° C. and”, “is evaluated 21 days after” for “is evaluated 8 days after”

[7] = tested on: Leptosphaeria nodorum; test: in vivo preventive Leptosphaeria nodorum test (wheat); conditions: Table C1, 8 days after inoculation
Method: as §1, with “suspension of Leptosphaeria nodorum. The plants” for “suspension of Pyrenophora teres. The plants”, “of approximately 25° C. and” for “of approximately 20° C. and”

[8] = Table B1, 7 days after inoculation, 40 ppm a.i.
[9] = Table D2, 7 days after inoculation, 0.5 ppm a.i.
[10] = Table D2, 7 days after inoculation, 1 ppm a.i.
[11] = Table G2, 21 days after inoculation, 40 ppm a.i.
[12] = Table A2, 3 days after inoculation, 2 ppm a.i.
[13] = Table A2, 3 days after inoculation, 4 ppm a.i.
[14] = Table B2, 7 days after inoculation, 10 ppm a.i.
[15] = Table B2, 7 days after inoculation, 40 ppm a.i.
[16] = Table D3, 7 days after inoculation, 2 ppm a.i.
[17] = Table G1, 21 days after inoculation, 20 ppm a.i.
[18] = Table A1, 3 days after inoculation, 1 ppm a.i.
[19] = Table D1, 7 days after inoculation, 0.1 ppm a.i.
[20] = Table D1, 7 days after inoculation, 0.2 ppm a.i.
[21] = Table D3, 7 days after inoculation, 10 ppm a.i.

Cn1cc(C(=O)Nc2cccc3c2[C@@H]2CC[C@H]3C2=C(Cl)Cl)c(C(F)F)n1 (racemic) [(B.6), benzovindiflupyr]
Efficacy in % found ([1]; Table A2, 3 days after inoculation, 0.5 ppm a.i.): 22% | Efficacy in % found [2, 8]: 11% | Efficacy in % found ([3]; Table D2, 7 days after inoculation, 0.25 ppm a.i.): 8% | Efficacy in % found [3, 9]: 8% | Efficacy in % found [3, 10]: 15% | Efficacy in % found ([4]; 40 ppm a.i.): 86% | Efficacy in % found ([5]; 80 ppm a.i.): 57% | Efficacy in % found [6, 11]: 38%

OC(Cc1ccccc1Cl)(Cn1nc[nH]c1=S)C1(Cl)CC1 (centres unmarked) [(A.3), prothioconazole]
Efficacy in % found [1, 12]: 0% | Efficacy in % found [1, 13]: 24% | Efficacy in % found [2, 14]: 22% | Efficacy in % found [2, 15]: 22% | Efficacy in % found ([3]; Table D3, 7 days after inoculation, 1 ppm a.i.): 0% | Efficacy in % found [3, 16]: 35% | Efficacy in % found [6, 17]: 0%

CC(C)(C)C(O)(CCc1ccc(Cl)cc1)Cn1cncn1 (centres unmarked) [(A.4), tebuconazole]
Efficacy in % found [1, 18]: 0% | Efficacy in % found [3, 19]: 0% | Efficacy in % found [3, 20]: 30%

Cn1cc(C(=O)Nc2ccc(F)cc2-c2ccc(Cl)c(Cl)c2)c(C(F)F)n1 [(B.1), bixafen]
Efficacy in % found [1, 18]: 40% | Efficacy in % found [2, 15]: 0% | Efficacy in % found ([7]; 80 ppm a.i.): 0% | Efficacy in % found ([3]; Table D1, 7 days after inoculation, 10 ppm a.i.): 0% | Efficacy in % found [3, 21]: 0% | Efficacy in % found [6, 11]: 0%

O=C(NCCc1ncc(C(F)(F)F)cc1Cl)c1ccccc1C(F)(F)F [(B.2), fluopyram]
Efficacy in % found [1, 12]: 30% | Efficacy in % found [2, 15]: 11%

Cn1cc(C(=O)Nc2ccccc2-c2cc(F)c(F)c(F)c2)c(C(F)F)n1 [(B.3), fluxapyroxad]
Efficacy in % found ([7]; 40 ppm a.i.): 14% | Efficacy in % found [6, 11]: 13%

CC(C)c1ccc(Cl)cc1CN(C(=O)c1c(C(F)F)nn(C)c1F)C1CC1 [(B.8), N-(5-chloro-2-isopropylbenzyl)-N-cyclopropyl-3-(difluoromethyl)-5-fluoro-1-methyl-1H-pyrazole-4-carboxamide]
Efficacy in % found [1, 18]: 45% | Efficacy in % found ([7]; 20 ppm a.i.): 0% | Efficacy in % found ([3]; Table D1, 7 days after inoculation, 20 ppm a.i.): 0% | Efficacy in % found [3, 21]: 0% | Efficacy in % found [6, 17]: 29%

CO/C=C(/C(=O)OC)c1ccccc1Oc1cc(Oc2ccccc2C#N)ncn1 [(C.1), azoxystrobin]
Efficacy in % found ([1]; Table A2, 3 days after inoculation, 1 ppm a.i.): 46% | Efficacy in % found [3, 9]: 20% | Efficacy in % found [3, 10]: 68% | Efficacy in % found ([3]; Table D3, 7 days after inoculation, 0.5 ppm a.i.): 23% | Efficacy in % found ([4]; 10 ppm a.i.): 71% | Efficacy in % found ([5]; 20 ppm a.i.): 71% | Efficacy in % found ([6]; Table G2, 21 days after inoculation, 10 ppm a.i.): 0%

CO/C=C(/C(=O)OC)c1ccccc1COc1cccc(C(F)(F)F)n1 [(C.2), picoxystrobin]
Efficacy in % found ([2]; Table B1, 7 days after inoculation, 20 ppm a.i.): 44% | Efficacy in % found ([3]; Table D2, 7 days after inoculation, 2 ppm a.i.): 30%

COC(=O)N(OC)c1ccccc1COc1ccn(-c2ccc(Cl)cc2)n1 [(C.3), pyraclostrobin]
Efficacy in % found ([7]; 40 ppm a.i.): 57% | Efficacy in % found [6, 11]: 88%

CON=C(C(=O)OC)c1ccccc1CON=C(C)c1cccc(C(F)(F)F)c1 [(C.4), trifloxystrobin]
Efficacy in % found [1, 18]: 30% | Efficacy in % found [1, 13]: 73% | Efficacy in % found [2, 14]: 11% | Efficacy in % found ([7]; 40 ppm a.i.): 14% | Efficacy in % found [3, 16]: 0% | Efficacy in % found ([6]; Table G2, 21 days after inoculation, 20 ppm a.i.): 75%

CCN(C)/C=N/c1cc(C)c(Oc2ccccc2)cc1C [(I-d), N′-(2,5-dimethyl-4-phenoxyphenyl)-N-ethyl-N-methylimidoformamide]
Efficacy in % found ([1]; Table A1, 3 days after inoculation, 0.5 ppm a.i.): 8% | Efficacy in % found [1, 18]: 15% | Efficacy in % found ([1]; Table A2, 3 days after inoculation, 0.1 ppm a.i.): 0% | Efficacy in % found ([1]; Table A2, 3 days after inoculation, 0.2 ppm a.i.): 0% | Efficacy in % found [2, 8]: 33% | Efficacy in % found [2, 14]: 0% | Efficacy in % found ([2]; Table B2, 7 days after inoculation, 20 ppm a.i.): 0% | Efficacy in % found [2, 15]: 0% | Efficacy in % found ([2]; Table B2, 7 days after inoculation, 80 ppm a.i.): 22% | Efficacy in % found ([7]; 80 ppm a.i.): 29% | Efficacy in % found ([3]; Table D1, 7 days after inoculation, 0.05 ppm a.i.): 0% | Efficacy in % found [3, 19]: 23% | Efficacy in % found [3, 20]: 86% | Efficacy in % found ([3]; Table D2, 7 days after inoculation, 0.05 ppm a.i.): 0% | Efficacy in % found ([3]; Table D2, 7 days after inoculation, 0.1 ppm a.i.): 0% | Efficacy in % found ([3]; Table D2, 7 days after inoculation, 0.2 ppm a.i.): 23% | Efficacy in % found ([3]; Table D3, 7 days after inoculation, 0.05 ppm a.i.): 0% | Efficacy in % found ([3]; Table D3, 7 days after inoculation, 0.1 ppm a.i.): 0% | Efficacy in % found ([4]; 40 ppm a.i.): 57% | Efficacy in % found ([5]; 80 ppm a.i.): 29% | Efficacy in % found [6, 17]: 14% | Efficacy in % found ([6]; Table G1, 21 days after inoculation, 40 ppm a.i.): 14% | Efficacy in % found [6, 11]: 0% | Efficacy in % found ([6]; Table G2, 21 days after inoculation, 80 ppm a.i.): 0%
